From paper PMC5555576, “Selective small-chemical inhibitors of protein arginine methyltransferase 5 with anti-lung cancer activity” (PLoS ONE, 2017) come the findings set out here.

Where “and” joins values, the source holds several entries; their conditions need not be identical. Equal values may be shown once. Read-outs that look alike come from different tables or passages of the source.

Assay [1] concerns the target T1, PRMT5 (Homo sapiens, UniProt O14744).
T1 construct: His6; made in house; host or cells: E. coli BL21(ED3) [sic]
In words: Radioactive methyltransferase assay, PRMT5. It counts as biochemical. Here is the method: (§1) Methylation reactions were performed as previously described with a few modifications. Reaction mixtures (40 μl) containing 1.2 μg of PRMT5, 98 ng of PRMT1 or 98 ng of PRMT3; 2 μg of SmD3 or histones; 1 μCi of S-[methyl-^3H]adenosylmethionine (H^3-AdoMet; PerkinElmer); and 5 μM AdoMet were incubated in 50 mM Tris-HCl (pH 7.5)–1 mM EGTA–1 mM EDTA at 30°C for 2 h. Reaction mixtures (20 μl) were boiled in 5 μl of 5x SDS sample buffer and separated on a 15% polyacrylamide gel. Gels were fixed for 30 min in 40% methanol–10% acetic acid, incubated in 20 ml of Amplify (Amersham Life Science) for 10 min, dried and exposed to X-ray film at -80°C. IC50 was calculated by linear regression analysis of percent inhibition. The other half (20 μl) of each reaction mixture was spread onto DE81 chromatography paper discs (Whatman). The paper discs were washed 4 times with 50 mM NaHCO3 and dried. The amounts of methylated products were quantified by liquid scintillation.
In vitro methylation reactions were performed with recombinant PRMT5 (1.2 μg), PRMT1 ([…]) or PRMT3 (89 ng); [H^3]-AdoMet; and different substrates in the presence of identified compounds. […] The recombinant SmD3 (2 μg) was used as the substrate in the absence (lane 2) or presence of 1, 10 or 100 μM compounds as indicated. Reaction mixtures were separated on an SDS–15% polyacrylamide gel and the gel was dried under vacuum and exposed to film. […] Recombinant histones H4 or H2A (1 μg) were used as substrates of PRMT5 in the methylation assay in the absence or presence of 100 μM compounds as indicated. Reaction mixtures were spread onto DE81 chromatography paper discs. After a wash, the amounts of methylated products on discs were quantified by liquid scintillation. […] PRMT1 was incubated with purified histones (1 μg) or recombinant E2F1 (1 μg) as substrates in the absence (lane 2) or presence of 100 μM compounds as indicated. Reaction mixtures were separated on an SDS–15% polyacrylamide gel and the gel was dried and exposed to film.

Assay [2] has as its target T2, PRMT5 F225M (Homo sapiens, UniProt O14744, F327M).
T2 construct: His6; made in house; host or cells: bacteria (E. coli BL21(ED3) for the wild type)
Briefly: Radioactive methyltransferase assay, mutant PRMT5. It counts as biochemical. The conditions noted are these: F225M mutant PRMT5, SmD3 substrate, Fig 4D. Here is the method: as §1
The inhibitory activity of the compounds may stem from this interaction. To test this possibility, we conducted site-directed mutagenesis to mutate Phe225 in human PRMT5 (corresponding to Phe379 in the C. elegans PRMT5) to Met. The mutated PRMT5 was expressed in bacteria and purified by Ni-nitrilotriacetic acid (Ni-NTA) affinity chromatography (Fig 4A). The activity of the mutant PRMT5 was examined by the radioactive methyltransferase assay. […] The IC50 values for the mutant PRMT5 increased from 4.3 to 183 folds higher than those for the wild type PRMT5 (Fig 4D). […] The results also can help explain the specificity of the compounds to PRMT5. However, the contribution of this interaction to inhibition varies among the compounds. For example, compound C2 interacts with three amino acid residues (Lys451, Glu450, and Phe379) (Fig 3A) with the mutation of Phe to Met resulting in a 50-times higher IC50 (Fig 4C and 4D).
Fig 4 The conserved phenylalanine residue in PRMT5 is critical for inhibition by the five compounds. A, DS-PAGE of recombinant wild type (WT) and F225M mutant (MT) PRMT5. The gel was stained with Coomassie Brilliant Blue R250. A band corresponding to an unknown bacterial protein is indicated (star). B, The F225M mutation increased the methytransferase activity of PRMT5. In vitro methylation reactions were performed with recombinant wild type (lanes 2–4) or mutant (lanes 5–7) PRMT5 (1.2, 2.4 or 4.8 μg) and SmD3 (2 μg) as the substrate. C, The F225M mutation in PRMT5 decreased inhibition of arginine methylation by the compounds. The reaction mixture contained SmD3 (2 μg); wild type or mutant PRMT5 (1.2 μg); and 1, 10 or 100 μM compounds as indicated. D, The F225M mutation in PRMT5 […] of the compounds, as determined by quantitation and analysis of methylation assay results. TEXT PRINTED IN THE PICTURE: (D) C2: IC50 (μM) PRMT5: 0.1; IC50 (μM) PRMT5 F225M: 5.0 | (D) C5: IC50 (μM) PRMT5: 0.8; IC50 (μM) PRMT5 F225M: 3.5 | (D) C6: IC50 (μM) PRMT5: 0.5; IC50 (μM) PRMT5 F225M: 7.0 | (D) C9: IC50 (μM) PRMT5: 6.0; IC50 (μM) PRMT5 F225M: 45.0 | (D) C11: IC50 (μM) PRMT5: 0.3; IC50 (μM) PRMT5 F225M: 55.0

Assay [3] concerns PC14 cells. Briefly: Cell growth by cell counting, PC14. It counts as cell-based. The conditions noted are these: 2 days post treatment. Here is the method:
Lung cancer A549 (ATCC) and PC14 (ATCC) cells were cultured in minimum essential medium (Cellgro) with 10% (v/v) fetal bovine serum (FBS) (HyClone), 2% vitamins, 1% L-glutamine, 1% non-essential amino acids and 1% sodium pyruvate. For the treatment with identified compounds, cells (2, 000 cells/well) were seeded in 24-well plates in the medium containing 2% FBS. The fresh medium containing identified compounds was added 24 hours later. Cells were cultured for various times in a CO2 incubator and the cell numbers were counted. Each experiment was performed in triplicate.
A, Lung cancer A549 cells were cultured in the presence of various concentrations (μM) of identified compounds and growth inhibition was determined by cell counting at various time points. B, Lung cancer PC14 cells were cultured in the presence of DMSO or various concentrations of identified compounds and growth inhibition was determined by cell counting 2 days post the compound treatment. C, The serum concentrations of compound C9 after oral administration. Mice were sacrificed and blood samples were collected immediately before (0 h) and at 2, 4, 6 and 8h after compound administration.

The mark [4] stands for this setting: methylation of SmD3 by PRMT5, Table 1 prints no unit, μM, read-out: IC50.

For orientation: IC50 means the concentration at which inhibition is half-maximal.

T1 sequence (O14744 whole entry): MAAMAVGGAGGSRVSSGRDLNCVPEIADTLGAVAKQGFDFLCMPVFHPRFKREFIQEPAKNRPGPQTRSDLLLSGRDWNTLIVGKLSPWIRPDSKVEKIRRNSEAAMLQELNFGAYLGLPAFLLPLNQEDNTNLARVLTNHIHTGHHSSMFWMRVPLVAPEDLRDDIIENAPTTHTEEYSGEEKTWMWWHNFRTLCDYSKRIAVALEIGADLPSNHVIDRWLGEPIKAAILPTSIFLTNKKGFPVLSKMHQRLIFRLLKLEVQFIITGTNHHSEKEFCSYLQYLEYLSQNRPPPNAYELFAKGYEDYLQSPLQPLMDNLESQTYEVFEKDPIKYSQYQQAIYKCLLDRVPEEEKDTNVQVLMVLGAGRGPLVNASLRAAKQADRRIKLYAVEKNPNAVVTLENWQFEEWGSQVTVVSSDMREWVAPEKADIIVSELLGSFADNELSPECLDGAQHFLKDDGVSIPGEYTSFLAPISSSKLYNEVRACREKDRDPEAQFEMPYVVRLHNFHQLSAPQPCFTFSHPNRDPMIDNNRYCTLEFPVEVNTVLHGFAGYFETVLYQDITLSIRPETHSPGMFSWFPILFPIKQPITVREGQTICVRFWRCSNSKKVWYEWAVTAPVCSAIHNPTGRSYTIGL
T2 sequence (O14744 whole entry F327M): as the sequence (O14744 whole entry) above, with F327M counted along it

On to `CCn1c(=O)[nH]c2cc(C(=O)Nc3ccc(OC)cc3)ccc2c1=O` [Compound C5], for which the IC50 is 0.75 µM in assay [1] (setting [4]); 0.8 µM in assay [1] (wild type PRMT5, SmD3 substrate, Fig 4D, read-out: IC50 (μM) PRMT5); 3.5 µM in assay [2]. Moreover, the “PC14 cell growth inhibition” value in assay [3] was “inhibited PC14 cell growth”.

Consider `COc1ccc(Nc2ncnc3c2cnn3Cc2ccc(C)cc2)cc1` [Compound C9], for which the IC50 in assay [1] (setting [4]) is ~6 µM and 6 µM; in assay [2], 45 µM. The “PC14 cell growth inhibition” value in assay [3] is on record as “inhibited PC14 cell growth”.

Turning to `Nc1cccc(Nc2ncnc3c2cnn3Cc2ccccc2)c1` [Compound C9a], the “inhibition of PRMT5 activity compared to C9” value in assay [1] (SmD3 substrate, 1, 10 or 100 μM) is reported as “higher efficacy”. In addition, the IC50 in assay [1] (setting [4]) was determined as 0.7 µM.

Take `Cn1cc(C(c2ccc(O)c(O)c2O)c2cn(C)c3ccccc23)c2ccccc21` [Compound C11]: the IC50 in assay [1] (setting [4]) is 0.3 µM; in assay [2], 55 µM. Besides, the “PC14 cell growth inhibition” value in assay [3] is “inhibited PC14 cell growth”.
